≈ marks a conversion by molar mass, not a printed value. Where two headings read alike, the source gives them in different places. Where a SMILES comes first, the peptide text is derived from it. The star is where a group is joined. Cbz = O=C(OCc1ccccc1)*
What was measured:
[1] = tested on: Rev-RRE IIB interaction; conditions: in vitro
Description: To further validate the hits, we used an electrophoretic mobility shift assay (EMSA) to evaluate which of the three hit scaffolds were capable of disrupting the Rev-RRE IIB interaction in vitro.

[2] = biological target: T1, Rev-RRE IIB interaction (Human immunodeficiency virus type 1 group M subtype B, UniProt P04608+P04618); format: cell-based, HIV
T1 construct: with a fusion to HIV Rev (residues 3-70) was generated; expressed in transfected cells
T1 sequence (P04608 whole entry, looked up, the tested form may be a part): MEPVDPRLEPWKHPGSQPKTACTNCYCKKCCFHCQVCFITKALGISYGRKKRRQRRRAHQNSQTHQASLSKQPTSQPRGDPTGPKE
T1 sequence (P04618 whole entry, looked up, the tested form may be a part): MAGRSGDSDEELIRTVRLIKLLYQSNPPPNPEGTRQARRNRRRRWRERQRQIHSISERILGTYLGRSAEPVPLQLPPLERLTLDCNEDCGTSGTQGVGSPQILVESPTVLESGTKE
Description: A library of approximately 4500 carboxamide-containing compounds was assembled and tested in the reporter cell line at 30 μM. Reporter cells were plated in a white 96-well plate and compounds were added to the cells using a Biomek FX robotic liquid handler (Beckman Coulter). The cells were incubated with the compound for 48 hours then assayed for luciferase activity (Promega Bright Glo). The cytotoxicity of each compound was determined in parallel via MTT-based cell viability assays.
Cells were counted and plated into white 384-well or 96-well cell-culture treated assay plates and compounds were added. After 48 hours, the cells were prepared for luminescence assays that were performed on a plate reader (Tecan Evolution or MD Analyst). The cytotoxicity of each compound was determined in parallel via MTT-based cell viability assays.
Tat hybrid reporter assay. […] Previously characterized thienopyridines and diaminoacridine were used as controls. Cells were counted and plated into white 384-well cell-culture treated assay plates and compounds were added. After 48 hours, the cells were prepared for lumincescence assays that were performed on a plate reader (Tecan Evolution or MD Analyst). The cytotoxicity of each compound was determined in parallel via MTT-based cell viability assays.
The RRE IIB-Rev screening cell line was plated in 384-well assay plates and compounds were added to the cells to a final concentration of 30 μM. Cells were prepared and assayed for luciferase activity. […] In parallel, MTT cell viability assays were performed to assess the toxicity of compounds and minimize the level of false positives.

[3] = tested on: PBMC; assay: MTT toxicity in the PBMC replication assay; format: cell-based, Human; conditions: PBMC experiment; read-out: TC50 by MTT assay
Excerpt: Results of this experiment are shown in FIG. 9 where the replication and toxicity curves for isolate 93BR021 (CCR5-tropic, group M, subtype B) are shown.

[4] = tested on: HIV-1 isolate NL4-3; assay: Virus spreading / replication assay in Jurkat cells, p24 ELISA; format: cell-based
Description: (§1) Virus spreading assay. Jurkat (E6-1) cells (NIH AIDS Reagent Program) were cultured in RPMI media supplemented with 25 mM HEPES pH 7.4, 10% heat-inactivated fetal calf serum (Hyclone, Waltham Mass.), and 1% penicillin/streptomycin. 2.5×10^5 Jurkat cells were inoculated with 250 pg p24 in 250 μl media in a 96-well flat bottom polystyrene cell culture microplate. Input virus was removed after 18 hours via washing cells phosphate-buffered saline (PBS). Cells were resuspended in 250 μl of media containing compounds at the described concentrations. Cells were incubated at 37° C., 5% CO2 and supernatant samples were removed every 48 hours and replaced with fresh media containing the compounds. Viral replication was quantified using ELISA to quantify p24 viral capsid protein in the culture supernatant. Mouse monoclonal and rabbit polyclonal α-p24 antibodies used in the ELISA were obtained from the NIH AIDS Reagent Program. Toxicity was monitored using the MTT cell viability assay (Mosmann, T. (1983). J Immunol Methods 65, 55-63).

[5] = Aqueous solubility pH 7.4; format: physicochemical; conditions: aqueous solution, pH 7.4, pH 7.4, aqueous buffer
Excerpt: (§2) We next evaluated analogs 2b, 2f, 4a, and 4e in a panel of standard in vitro ADME assays to assess drug-like properties and the potential for efficacy in animals.

[6] = Human liver microsome stability; format: in vitro ADME; conditions: human liver microsomes; read-out: HLM T1/2
Excerpt: The more lipophilic analogs 4a and 4e also appear more prone to oxidative metabolism in the presence of human liver microsomes. This is perhaps unsurprising given the presence of methoxyphenyl (4a) and benzylic methylene (4e) functions, both potential sites of oxidative metabolism.

[7] = Caco-2 permeability; format: in vitro ADME; conditions: human
Excerpt: as §2

[8] = MTT cell viability in Jurkat replication assay; format: cell-based; conditions: human, Jurkat (E6-1) cells, pH 7.4; Jurkat infectivity assay; read-out: TC50 (MTT cell viability)
Description: as §1

[9] = tested on: HIV-1 provirus in U1 cells; assay: U1 activation (latency) assay, p24 ELISA; format: cell-based
Description: (§3) U1 activation assay. U1 cells obtained from the AIDS Research and Reference Reagent Program were maintained under standard culture conditions in RPMI 1640 supplemented with 10% fetal bovine serum (heat inactivated), 2 mM L-glutamine, 100U/mL penicillin and 100 μg/mL streptomycin. U1 cells contain an integrated copy of a phorbol ester inducible HIV-1 provirus and addition of phytohemagglutinin (PHA) to the cell culture was used to induce virus production. On the day of the assay, the U1 cells were activated with PHA and 250,000 cells were plated in 96-well plates. Test compounds were diluted in media and applied to the cells at final concentrations from 1 to 10,000 nM. Cultures were incubated for 3 days and supernatants harvested. Cell-free virus production was measured by p24 ELISA on culture supernatant. Compound toxicity was determined by MTT cell-viability assay in parallel assays.

[10] = biological target: T2, HIV TAR Luciferase reporter with HIV Tat 1-72 (Human immunodeficiency virus type 1 group M subtype B, UniProt P04608); assay: Tat-hybrid transient reporter assay in 293T cells, TAR reporter; format: cell-based; conditions: 100 nM compound; 293T transient transfection
T2 construct: 5 ng of the HIV Tat 1-72 expression construct; expressed in transfected cells; host or cells: 293T, transient transfection
T2 sequence (P04608 1-72): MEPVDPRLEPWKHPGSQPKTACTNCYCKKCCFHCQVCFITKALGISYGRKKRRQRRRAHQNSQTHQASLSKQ
Description: (§4) Testing the specificity of the thienopyridine compounds using the Tat-hybrid reporter system.
(§5) A 96 well plate was seeded with 10,000 293T cells. We transfected each well with 10 ng of the HIV TAR Luciferase reporter and 5 ng of the HIV Tat 1-72 expression construct or 10 ng of the HIV RRE IIB Luciferase reporter and 5 ng of the HIV Tat (1-48)-Rev 3-70 expression construct, and with 2 ng of a CMV Renilla luciferase control. Compound 4a was added to a final concentration of 3.16, 10, 31.6, and 100 nM. Each condition was performed in quadruplet. Note, it was necessary to use transient transfection assays rather than stable cell lines in order to compare the two reporter systems, although the level of inhibition conferred by the compounds in the transient assays was lower than in the cell lines. The cells were incubated for 48 hours and dual luciferase assays were performed according to the manufacturers protocol (Promega). Reporter activity was normalized against the Renilla control.

[11] = biological target: T3, HIV RRE IIB Luciferase reporter with HIV Tat (1-48)-Rev 3-70 (Human immunodeficiency virus type 1 group M subtype B, UniProt P04608+P04618); assay: Tat-hybrid transient reporter assay in 293T cells, RRE IIB reporter; format: cell-based; conditions: 100 nM compound; 293T transient transfection
T3 construct: HIV Tat (1-48)-Rev 3-70 expression construct; expressed in transfected cells; host or cells: 293T, transient transfection
T3 sequence (P04608 whole entry, looked up): as the sequence (P04608 whole entry, looked up, the tested form may be a part) above
T3 sequence (P04618 whole entry, looked up): as the sequence (P04618 whole entry, looked up, the tested form may be a part) above
Description: as §4, §5

[12] = tested on: HIV RRE (Rev-dependent) reporter; assay: Rev reporter assay in 293T cells, p24 ELISA; format: cell-based; conditions: Human immunodeficiency virus 1, HEK-293T, Table 2
Description: Rev reporter assay. In the Rev reporter assay, 293T cells were transfected with an HIV RRE (Rev-dependent) reporter plus a pSV2 Rev expression plasmid (Hope, T. J., et al. (1990) Proc. Natl. Acad. Sci. USA 87, 7787-7791). Compounds were incubated with the cells for 48 hours and reporter activity was assessed by p24 ELISA. Leptomycin B, an inhibitor of the Crm1 pathway that inhibits Rev-dependent export, was included as a control. The cytotoxicity of each compound was determined in parallel via MTT-based cell viability assays.

[13] = tested on: Vpu-dependent degradation of Rev; assay: Vpu-dependent degradation of Rev, western blot in transfected 293T cells; format: cell-based, HIV; conditions: co-transfection with 100 ng Vpu expression plasmid
Description: Vpu is a regulator of Rev. In this experiment, Rev was expressed in the presence or absence of Vpu and levels of both proteins were measured by western blot. Flag tagged Rev and either Flag tagged Vpu or Flag tagged GFP were transfected to 293T cells.
Next we tested the Vpu-dependent degradation of Rev with the proteasome inhibitor MG132.

[14] = MTT cell viability run in parallel with the Tat-hybrid assay; format: cell-based; conditions: human, Tat-hybrid reporter cell lines (HeLa); for CC50 at 48 h: Table 5, read-out: Tat hybrid TC50
How it was run: (§6)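 HeLa reporter lines (Tat-hybrid) treated with compound for 48 hours, then luciferase luminescence measured. Cytotoxicity assessed in parallel by MTT viability; thienopyridines and diaminoacridine served as controls.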

[15] = tested on: Jurkat cells; assay: MTT cell viability in Jurkat replication assay; format: cell-based; conditions: Table 5; read-out: Jurkat TC50
Description: as §1

[16] = MTT cell viability in parallel with the U1 assay; format: cell-based; conditions: human, U1 cells; Table 5; read-out: U1 TC50
Description: as §3

[17] = tested on: Tat-hybrid reporter cell lines (HeLa); assay: MTT cell viability run in parallel with the Tat-hybrid assay; format: cell-based; conditions: Table 6; at 50,000 nM
How it was run: as §6

[18] = tested on: U1 cells; assay: MTT cell viability in parallel with the U1 assay; format: cell-based; conditions: Table 6; read-out: U1 TC50
Description: as §3

[19] = Human immunodeficiency virus 1, NL43, Jurkat, Table 2, NL4-3, read-out: Jurkat HIV-1 replication assay
[20] = Human immunodeficiency virus 1, read-out: U1 cell IC50 (nM)
[21] = Human immunodeficiency virus 1, NL43, Jurkat, Table 5, read-out: Jurkat replication IC50
[22] = Human immunodeficiency virus 1, Table 5, read-out: U1 IC50

Nc1ccc2cc3ccc(N)cc3nc2c1 [3,6 diaminoacridine, reference compound]
inhibition of the Rev-RRE interaction by EMSA [1]: inhibition of Rev-RRE formation is observed | activity in the Tat-hybrid reporter assay [2]: inhibits expression of the reporter

Cc1cn([C@H]2C[C@H](N=[N+]=[N-])[C@@H](CO)O2)c(=O)[nH]c1=O [AZT]
CC50 [3]: < 40000 nM

NC(=O)c1sc2cncc(N3CCCCC3)c2c1N [Compound 2b, 3-amino-4-(piperidin-1-yl)thieno[2,3-c]pyridine-2-carboxamide]
IC50 [4, 19]: < 100 nM | IC50 ([4]; Human immunodeficiency virus 1, NL43, Jurkat, read-out: IC50 in the HIV replication assay): 76.8 nM | IC50 ([4]; Table 1, read-out: Jurkat HIV-1 replication assay): < 100 nM | solubility [5]: 34 µM (≈ 9.4 µg/mL) | half-life [6]: 28 min | Papp [7]: 50.5 ×10⁻⁶ cm/s | CC50 [8]: > 40000 nM | IC50 [9, 20]: < 100 nM | IC50 ([9]; Human immunodeficiency virus 1, read-out: IC50 in the U1 assay): 28 nM

CC(=O)N1CCN(c2cncc3sc(C(N)=O)c(N)c23)CC1 [Compound 2f, 4-(4-acetylpiperazin-1-yl)-3-aminothieno[2,3-c]pyridine-2-carboxamide]
IC50 ([4]; Human immunodeficiency virus 1, NL43, Jurkat, Table 1, read-out: Jurkat HIV-1 replication assay): > 500 nM | solubility [5]: 258 µM (≈ 82.4 µg/mL) | half-life [6]: > 60 min | Papp [7]: 9.7 ×10⁻⁶ cm/s | IC50 [9, 20]: 100 to 500 nM

COc1ccc(-c2cncc3sc(C(N)=O)cc23)cc1 [Compound 4a, 4-(4-methoxyphenyl)thieno[2,3-c]pyridine-2-carboxamide]
IC50 [4, 19]: < 100 nM | solubility [5]: 0.44 µM (≈ 0.125 µg/mL) | half-life [6]: 8 min | activity in the Tat-hybrid reporter assay [2]: low-nM potency | Papp [7]: 59.4 ×10⁻⁶ cm/s | expression of the HIV TAR reporter [10]: not similarly inhibited | expression of the HIV RRE IIb reporter [11]: significantly inhibited | potency in the U1 assay [9]: low-nM potency | IC50 ([9]; Human immunodeficiency virus 1, Table 2, read-out: U1 cell IC50): < 100 nM | EC50 [12]: 100 to 500 nM

CC(C)C[C@@H](C=O)NC(=O)[C@H](CC(C)C)NC(=O)[C@H](CC(C)C)NC(=O)OCc1ccccc1 [MG132] (Cbz-Leu-Leu-Leu-aldehyde)
effect on Vpu-dependent degradation of Rev [13]: blocks Vpu-dependent degradation of Rev

NC(=O)c1cc2c(-c3ccc4c(c3)CCO4)cncc2s1 [drawing 128]
IC50 [4, 21]: < 100 nM | CC50 at 48 h [14]: > 40000 nM | CC50 [15]: < 40000 nM | IC50 [9, 22]: < 100 nM | CC50 at 3 days [16]: < 40000 nM

NC(=O)c1sc2cncc(N3CCCCC3)c2c1N [drawing 134]
IC50 [4, 21]: < 100 nM | CC50 at 48 h [14]: > 40000 nM | CC50 [15]: > 40000 nM | IC50 [9, 22]: < 100 nM | CC50 at 3 days [16]: < 40000 nM

CN(C)c1ccnc2sc(C(N)=O)c(N)c12 [drawing 241]
Tat hybrid cell viability at 50,000 nM [17]: Y (Y = 30-60%) | EC50 at 48 h ([14]; Table 6, second 'EC50' entry of the cell, values D/E): > 40000 nM | IC50 ([9]; Table 6, read-out: U1 IC50): > 500 nM | CC50 [18]: > 40000 nM

From patent US10154992B2, “Compounds and methods for treating HIV infection” (THE REGENTS OF THE UNIVERSITY OF CALIFORNIA, priority 2016, dated 2018)
